Test results taken from patent publication US20060019284A1, “Identification of polynucleotides for predicting activity of compounds that interact with and/or modulate protein tyrosine kinases and/or protein tyrosine kinase pathways in lung cancer cells” (priority 2004, published 2006).

Columns and labels:
Sk-LU-1 lung cell line = assay: In vitro cytotoxicity assay (MTS), IC50 determination; format: cell-based, human; details: Sk-LU-1 cells
Procedure: (§1) Cytotoxicity was assessed in cells by the MTS (3-(4,5-dimethylthiazol-2-yl)-5-(3-carboxy-methoxyphenyl)-2-(4-sulphenyl)-2H-tetrazolium, inner salt) assay (T. L. Riss et al., 1992, Mol. Biol. Cell, 3 (Suppl.): 184a).
(§2) To carry out the assays, the lung cells were plated at 4,000 cells/well in 96 well microtiter plates, and 24 hours later, serially diluted drugs were added. The concentration range for the protein tyrosine kinase inhibitor compound BMS-A used in the cytotoxicity assay was from 5 μg/ml to 0.0016 μg/ml (roughly 10 μM to 0.0032 μM).
(§3) The cells were incubated at 37° C. for 72 hours at which time the tetrazolium dye, MTS (333 μg/ml final concentration), in combination with the electron coupling agent phenazine methosulfate (25 μM final concentration), was added. A dehydrogenase enzyme in live cells reduces the MTS to a form that absorbs light and can be quantified spectrophotometrically at 492 nM. The greater the absorbency the greater the number of live cells. The results are expressed as an IC50, which is the drug concentration required to inhibit cell proliferation (i.e. absorbance at 492 nm) to 50% of that of untreated control cells. The mean IC50 and standard deviation (SD) from multiple tests for each cell line were calculated.
(§4) The mean IC50 of the BMS-A protein tyrosine kinase inhibitor compound across the 23 human lund cell lines was calculated. […]

L2987 lung cell line = assay: as above; format: cell-based, human; details: L2987 cells
Procedure: as §1, §2, §3, §4

H226 lung cell line = assay: as above; format: cell-based, human; details: H226 cells
Procedure: as §1, §2, §3, §4

H838 lung cell line = assay: as above; format: cell-based, human; details: H838 cells
Procedure: as §1, §2, §3, §4

H661 lung cell line = assay: as above; format: cell-based, human; details: H661 cells
Procedure: as §1, §2, §3, §4

NCI-H596 lung cell line = assay: as above; format: cell-based, human; details: NCI-H596 cells
Procedure: as §1, §2, §3, §4

H441 lung cell line = assay: as above; format: cell-based, human; details: H441 cells
Procedure: as §1, §2, §3, §4

H522 lung cell line = assay: as above; format: cell-based, human; details: H522 cells
Procedure: as §1, §2, §3, §4

SW1271 lung cell line = assay: as above; format: cell-based, human; details: SW1271 cells
Procedure: as §1, §2, §3, §4

SW900 lung cell line = assay: as above; format: cell-based, human; details: SW900 cells
Procedure: as §1, §2, §3, §4

H2347 lung cell line = assay: as above; format: cell-based, human; details: H2347 cells, 72 hours, mean of 4 tests, read-out: Mean IC50 (uM) to BMS-A
Procedure: as §1, §2, §3, §4

H1155 lung cell line = assay: as above; format: cell-based, human; details: H1155 cells, 72 hours, mean of 3 tests, read-out: Mean IC50 (uM) to BMS-A
Procedure: as §1, §2, §3, §4

H23 lung cell line = assay: as above; format: cell-based, human; details: H23 cells, 72 hours, mean of 4 tests, read-out: Mean IC50 (uM) to BMS-A
Procedure: as §1, §2, §3, §4

[1] = system: panel of twenty-three human lung cell lines; assay: In vitro cytotoxicity assay (MTS), whole panel; format: cell-based; details: across the 23 lung cell lines
Procedure: as §1, §2, §3, §4

A549 cells = assay: Drug (BMS-A) treatment of A549 cells and expression profiling (HG-U133 arrays); format: cell-based, human; details: A549, 0.4 μM, 4 and 24 hours
Procedure: To identify polynucleotides regulated by a protein tyrosine kinase inhibitor compound, e.g., BMS-A, a lung cell line A549 was treated with or without the BMS-A compound (0.4 μM) in 0.1% DMSO for 4 and 24 hours. Expression profiling was performed, and the data were analyzed using GeneChip® Expression Analysis software MAS 5.0 (Affymetrix, Santa Clara, Calif.). The polynucleotide expression of a cell line treated with drug was compared using pair-wise analysis to the polynucleotide expression of the cell line without drug treatment. A change in p-value was calculated, indicating an increase, decrease or no change in polynucleotide expression. When the p-value was less than 0.0025, the change was considered significant. Duplicated experiments were performed, and analysis of 4 cross comparisons were performed.
The lung cells were grown under standard cell culture conditions: RPMI 1640 supplemented to contain 10% fetal bovine serum, 100 IU/ml penicillin, […] streptomycin, 2 mM L-glutamine and 10 mM Hepes (all from GibcoBRL, Rockville, Md.). RNA was isolated from the cultured cells, either treated or untreated with drug (i.e., the protein tyrosine kinase inhibitor compound) at 50-70% confluence using the RNeasy™ kits commercially available from Qiagen, Valencia, Calif. The quality of the RNA was assessed by measuring the 28s:18s ribosomal RNA ratio using an Agilent 2100 bioanalyzer (Agilent Technologies, Rockville, Md.). The concentration of total RNA was determined spectrophotometrically. 10 μg of total RNA from each cell line was used to prepare biotinylated probe according to the Affymetrix Genechip® Expression Analysis Technical Manual, 2001. Targets were hybridized to Affymetrix high density oligonucleotide array human HG-U133 set chips (Affymetrix, Santa Clara, Calif.). The arrays were then washed and stained using the GeneChip® Fluidics station according to the manufacture's instructions (Affymetrix Genechip® Technical Manual, 2001). The HG-U133 set contains 2 Genechip® arrays, which contain approximately 45,000 probe sets representing more than 39,000 transcripts derived from approximately 33,000 well-substantiated human polynucleotides.
A549 cells were seeded in a 10 cm^2 culture plate in cell culture medium as described herein and were cultured for 24 hours at 37° C. The medium was then changed to medium containing drug (0.4 μM BMS-A compound in 0.1% DMSO, Sigma); the cells were incubated for 4 hour or 24 hours, and then lysed for RNA isolation. The expression profiling was performed as described above and data were analyzed using GeneChip® Expression Analysis software MAS 5.0 (Affymetrix, Santa Clara, Calif.). The expression data of a drug treated cell line was compared pair-wise to data from the same cell line untreated with drug. A change in p-value was calculated, indicating an increase, decrease or no change in polynucleotide expression. When the p-value was less than 0.0025, the change was considered to be significant. This analysis was performed for duplicated experiments

SK-MES-1 lung cell line = assay: In vitro cytotoxicity assay (MTS), IC50 determination; details: SK-MES-1 cells
Procedure: as §1, §2, §3, §4

[2] = MTS, 72 hours, mean of 4 tests, read-out: Mean IC50 (uM) to BMS-A
[3] = IC50 relative to mean IC50 of all 23 cell lines
[4] = MTS, 72 hours, mean of 3 tests, read-out: Mean IC50 (uM) to BMS-A
[5] = MTS, 72 hours, mean of 2 tests, read-out: Mean IC50 (uM) to BMS-A

## Cc1nc(Nc2ncc(C(=O)Nc3c(C)cccc3Cl)s2)cc(N2CCN(CCO)CC2)n1 [BMS-A, N-(2-chloro-6-methylphenyl)-2-[[6-[4-(2-hydroxyethyl)-1-piperazinyl]-2-methyl-4-pyrimidinyl]amino]-5-thiazolecarboxamide]
Sk-LU-1 lung cell line; [2]
  IC50: 0.014 µM
Sk-LU-1 lung cell line; [3]
  Classification: Sensitive (cell lines having an IC50 below the mean IC50 were defined as sensitive to the compound)
L2987 lung cell line; [2]
  IC50: 0.037 µM
L2987 lung cell line; [3]
  Classification: Sensitive (cell lines having an IC50 below the mean IC50 were defined as sensitive to the compound)
H226 lung cell line; [4]
  IC50: 0.058 µM
H226 lung cell line; [3]
  Classification: Sensitive (cell lines having an IC50 below the mean IC50 were defined as sensitive to the compound)
H838 lung cell line; [2]
  IC50: 0.072 µM
H838 lung cell line; [3]
  Classification: Sensitive (cell lines having an IC50 below the mean IC50 were defined as sensitive to the compound)
H661 lung cell line; [2]
  IC50: 0.123 µM
H661 lung cell line; [3]
  Classification: Sensitive (cell lines having an IC50 below the mean IC50 were defined as sensitive to the compound)
NCI-H596 lung cell line; [5]
  IC50: 0.124 µM
NCI-H596 lung cell line; [3]
  Classification: Sensitive (cell lines having an IC50 below the mean IC50 were defined as sensitive to the compound)
H441 lung cell line; [2]
  IC50: 0.141 µM
H441 lung cell line; [3]
  Classification: Sensitive (cell lines having an IC50 below the mean IC50 were defined as sensitive to the compound)
H522 lung cell line; [4]
  IC50: 0.215 µM
H522 lung cell line; [3]
  Classification: Sensitive (cell lines having an IC50 below the mean IC50 were defined as sensitive to the compound)
SW1271 lung cell line; [5]
  IC50: 0.242 µM
SW1271 lung cell line; [3]
  Classification: Sensitive (cell lines having an IC50 below the mean IC50 were defined as sensitive to the compound)
SW900 lung cell line; [4]
  IC50: 0.507 µM
SW900 lung cell line; [3]
  Classification: Sensitive (cell lines having an IC50 below the mean IC50 were defined as sensitive to the compound)
H2347 lung cell line
  IC50: ≥ 1.02 µM
H1155 lung cell line
  IC50: ≥ 1.02 µM
H23 lung cell line
  IC50: ≥ 1.02 µM
[1]
  variation in the IC50 values among the twenty-three lung cell lines: > 100 fold
A549 cells; Gene No. 12 peroxisomal biogenesis factor 6 (NM_000287)
  Modulated by BMS-A: Yes
A549 cells; Gene No. 24 cysteine-rich, angiogenic inducer, 61 (NM_001554)
  Modulated by BMS-A: Yes
A549 cells; Gene No. 26 fibroblast growth factor 2 (basic) (NM_002006)
  Modulated by BMS-A: Yes
A549 cells; Gene No. 35 polymerase I and transcript release factor (NM_012232)
  Modulated by BMS-A: Yes
A549 cells; Gene No. 39 ESTs, Weakly similar to hypothetical protein FLJ20489 (AI004009)
  Modulated by BMS-A: Yes
A549 cells; Gene No. 45 Rho GDP dissociation inhibitor (GDI) beta (NM_001175)
  Modulated by BMS-A: Yes
A549 cells; Gene No. 47 FOS-like antigen 1 (NM_005438)
  Modulated by BMS-A: Yes
A549 cells; Gene No. 58 collagen, type VI, alpha 1 (NM_001848)
  Modulated by BMS-A: Yes
A549 cells; Gene No. 64 KIAA1237 protein (AI148659)
  Modulated by BMS-A: Yes
A549 cells; Gene No. 69 a disintegrin-like and metalloprotease (reprolysin type) with thrombospondin type 1 motif, 1 (NM_006988)
  Modulated by BMS-A: Yes
A549 cells; Gene No. 72 serum-inducible kinase (NM_006622)
  Modulated by BMS-A: Yes
A549 cells; Gene No. 90 hypothetical protein FLJ20607 (NM_017899)
  Modulated by BMS-A: Yes
A549 cells; Gene No. 98 germ cell specific Y-box binding protein (NM_015982)
  Modulated by BMS-A: Yes
A549 cells; Gene No. 105 J domain containing protein 1 (NM_021800)
  Modulated by BMS-A: Yes
A549 cells; Gene No. 110 inhibitor of DNA binding 2, dominant negative helix-loop-helix protein (NM_002166)
  Modulated by BMS-A: Yes
A549 cells; Gene No. 115 neuronal cell adhesion molecule (NM_005010)
  Modulated by BMS-A: Yes
SK-MES-1 lung cell line; [3]
  Classification: Sensitive (cell lines having an IC50 below the mean IC50 were defined as sensitive to the compound)
SK-MES-1 lung cell line; read-out: Mean IC50 (uM) to BMS-A, MTS, 72 hours, mean of 3 tests
  IC50: 0.151 µM
